Read-outs that look alike come from different tables or passages of the source.
What was measured:
[1] = system: empty vector-transformed leaf discs; experiment: PSII yield inhibition in tobacco leaf discs (imaging PAM chlorophyll fluorescence); type: cell-based; settings: Nicotiana benthamiana, read-out: IC50 of PSII yield inhibition
Description: Transient expression of mutated PPO sequences as wildtype or with respective mutations were done as described previously (Voinnet O., et al., 2003, The Plant Journal 33, 949-956). In brief, cloning of GOI and Agrobacterium transformation (strain: GV2260) were done as described in EXAMPLE 5. Young leaves of Nicotiana benthamiana were infiltrated with transgenic Agrobacterium suspension (OD^600 of 1.0) harboring binary vector constructs containing a GO/gene controlled by a promoter and terminator sequence. 48 h to 72 h after infiltration punches of leave discs (0.75 cm in diameter) were transferred to 6-well plates with medium (half strength Linsmaier-Skoog (Linsmaier and Skoog (1965) Physiol. Plant. 18: 100-127) nutrient solution or water) containing herbicide of interest in different concentrations. […]
Leaf discs, generated as described in EXAMPLE 14, expressing a protein encoded by GOI, were subjected to analysis on improved tolerance to herbicide treatment. For analysis of herbicide damage, chlorophyll fluorescence were identified as indicative marker (Dayan and Zaccaro (2012) Pest. Biochem. Physiol. 102: 189-197). […] PSII yield were measured as per manufacturer instructions.
Tolerance factors were calculated based on IC50 values of PSII yield inhibition of transformed versus empty vector-transformed leaf discs.

[2] = system: transgenic Arabidopsis AMATU_PPO2_G211A_F420M; experiment: Germination assay, transgenic ARBTH germinating in medium containing selection agent (48-well plates); type: in vivo, Arabidopsis thaliana; settings: for IC50: Arabidopsis thaliana
Procedure: (§1) Transgenic Arabidopsis thaliana plants are assayed for improved tolerance to saflufenacil, 1,5-dimethyl-6-thioxo-3-(2,2,7-trifluoro-3-oxo-4-(prop-2-ynyl)-3,4-dihydro-2H-benzo[b][1,4]oxazin-6-yl)-1,3,5-triazinane-2,4-dione (CAS 1258836-72-4/trifludimoxazin), flumioxazin, butafenacil, acifluorfen, lactofen, bifenox, sulfentrazone, and photosynthesis inhibitor diuron as negative control in 48-well plates. Therefore, T2 seeds are surface sterilized by stirring for 5 min in ethanol+water (70+30 by volume), rinsing one time with ethanol+water (70+30 by volume) and two times with sterile, deionized water. The seeds are resuspended in 0.1% agar dissolved in water (w/v) Four to five seeds per well are plated on solid nutrient medium consisting of half-strength murashige skoog nutrient solution, pH 5.8 (Murashige and Skoog (1962) Physiologia Plantarum 15: 473-497). Compounds are dissolved in dimethylsulfoxid (DMSO) and added to the medium prior solidification (final DMSO concentration 0.1%). Multi well plates are incubated in a growth chamber at 22° C., 75% relative humidity and 110 μmol Phot*m^−2*s^−1 with 14: 10 h light: dark photoperiod. Growth inhibition is evaluated seven to ten days after seeding in comparison to wild type plants.
as §1, with “negative control,” for “negative control”, “inhibition was” for “inhibition is”, “plants. Additionally, transgenic T1 Arabidopsis plants were tested for improved tolerance to herbicides in greenhouse studies with the following herbicides: saflufenacil, 1,5-dimethyl-6-thioxo-3-(2,2,7-trifluoro-3-oxo-4-(prop-2-ynyl)-3,4-dihydro-2H-benzo[b][1,4]oxazin-6-yl)-1,3,5-triazinane-2,4-dione (CAS 1258836-72-4/trifludimoxazin), flumioxazin, butafenacil, acifluorfen, lactofen, bifenox, sulfentrazone, and photosynthesis inhibitor diuron as negative control.” for “plants.”

[3] = system: transgenic Arabidopsis AMATU_PPO2_wild_type; experiment: as above; type: in vivo, Arabidopsis thaliana
Procedure: as §1
as §1, with “negative control,” for “negative control”, “inhibition was” for “inhibition is”, “plants. Additionally, transgenic T1 Arabidopsis plants were tested for improved tolerance to herbicides in greenhouse studies with the following herbicides: saflufenacil, 1,5-dimethyl-6-thioxo-3-(2,2,7-trifluoro-3-oxo-4-(prop-2-ynyl)-3,4-dihydro-2H-benzo[b][1,4]oxazin-6-yl)-1,3,5-triazinane-2,4-dione (CAS 1258836-72-4/trifludimoxazin), flumioxazin, butafenacil, acifluorfen, lactofen, bifenox, sulfentrazone, and photosynthesis inhibitor diuron as negative control.” for “plants.”

[4] = system: non-transgenic (MC-24) Arabidopsis; experiment: Germination assay, ARBTH germinating in medium containing selection agent (48-well plates); type: in vivo, Arabidopsis thaliana
Procedure: Transgenic Arabidopsis thaliana plants are assayed for improved tolerance to saflufenacil, 1,5-dimethyl-6-thioxo-3-(2,2,7-trifluoro-3-oxo-4-(prop-2-ynyl)-3,4-dihydro-2H-benzo[b][1,4]oxazin-6-yl)-1,3,5-triazinane-2,4-dione (CAS 1258836-72-4/trifludimoxazin), flumioxazin, butafenacil, acifluorfen, lactofen, bifenox, sulfentrazone, and photosynthesis inhibitor diuron as negative control in 48-well plates. Therefore, T2 seeds are surface sterilized by stirring for 5 min in ethanol+water (70+30 by volume), rinsing one time with ethanol+water (70+30 by volume) and two times with sterile, deionized water. […] Growth inhibition is evaluated seven to ten days after seeding in comparison to wild type plants.
Transgenic Arabidopsis thaliana plants are assayed for improved tolerance to saflufenacil, 1,5-dimethyl-6-thioxo-3-(2,2,7-trifluoro-3-oxo-4-(prop-2-ynyl)-3,4-dihydro-2H-benzo[b][1,4]oxazin-6-yl)-1,3,5-triazinane-2,4-dione (CAS 1258836-72-4/trifludimoxazin), flumioxazin, butafenacil, acifluorfen, lactofen, bifenox, sulfentrazone, and photosynthesis inhibitor diuron as negative control, in 48-well plates. […] Growth inhibition was evaluated seven to ten days after seeding in comparison to wild type plants. […]

Row | IC50 ([1]; empty vector-transformed leaf discs, treated for 48 h) [µM] | SMILES | IC50 ([2]; Event D) [µM] | IC50 ([2]; Event M) [µM] | IC50 ([2]; Event P) [µM] | IC50 ([2]; Event Q) [µM] | IC50 ([2]; Event R) [µM] | Tolerance Factor (non transgeneic = 1.0) ([2]; Event D) | Tolerance Factor (non transgeneic = 1.0) ([2]; Event M) | Tolerance Factor (non transgeneic = 1.0) ([2]; Event P) | Tolerance Factor (non transgeneic = 1.0) ([2]; Event Q) | Tolerance Factor (non transgeneic = 1.0) ([2]; Event R) | Tolerance Factor (non transgeneic = 1.0) [3] | IC50 ([3]; Arabidopsis thaliana) [µM] | IC50 ([1]; 48 h) [µM] | Tolerance Factor (non transgeneic = 1.0) [4] | IC50 ([4]; Arabidopsis thaliana) [µM]
1 | 0.011 | C#CCN1C(=O)C(F)(F)Oc2cc(F)c(-n3c(=O)n(C)c(=S)n(C)c3=O)cc21 [1,5-dimethyl-6-thioxo-3-(2,2,7-trifluoro-3-oxo-4-(prop-2-ynyl)-3,4-dihydro-2H-benzo[b][1,4]oxazin-6-yl)-1,3,5-triazinane-2,4-dione] | – | – | – | – | – | – | – | – | – | – | – | – | – | – | –
2 | – | CC(C)N(C)S(=O)(=O)NC(=O)c1cc(-n2c(=O)cc(C(F)(F)F)n(C)c2=O)c(F)cc1Cl [Saflufenacil] | 25 | 25 | 7.5 | 7.5 | 7.5 | 1000 | 1000 | 300 | 300 | 300 | 10 | 0.106 | 0.11 | 1 | 0.025

From patent US11879132B2, “Plants having increased tolerance to herbicides” (BASF AGRO B.V., priority 2016, dated 2024)
